Reference: article PMC6906232 (The Journal of pharmacy and pharmacology, 2019)

Biological target: D184A mutant CB1 receptor (Homo sapiens, UniProt P21554, D184A)
Experiment: Methanandamide competition binding with [3H]CP55940 as tracer
Details: [3H]CP55940 tracer

Chain of D184A mutant CB1 receptor (P21554 whole entry D184A): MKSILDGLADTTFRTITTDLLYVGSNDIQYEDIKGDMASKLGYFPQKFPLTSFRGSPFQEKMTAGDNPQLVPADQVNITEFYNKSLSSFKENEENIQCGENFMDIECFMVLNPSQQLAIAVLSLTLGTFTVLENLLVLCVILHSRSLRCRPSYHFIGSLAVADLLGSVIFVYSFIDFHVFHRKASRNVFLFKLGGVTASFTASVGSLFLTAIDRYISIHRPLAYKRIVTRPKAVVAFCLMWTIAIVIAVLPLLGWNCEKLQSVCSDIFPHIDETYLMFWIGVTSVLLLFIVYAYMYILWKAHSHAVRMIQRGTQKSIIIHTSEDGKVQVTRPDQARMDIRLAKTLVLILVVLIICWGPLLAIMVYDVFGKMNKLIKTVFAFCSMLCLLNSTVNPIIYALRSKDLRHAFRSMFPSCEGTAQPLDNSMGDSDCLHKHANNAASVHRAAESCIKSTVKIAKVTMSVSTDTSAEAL

With `CCCCC/C=C\C/C=C\C/C=C\C/C=C\CCCC(=O)N[C@H](C)CO` [methanandamide] the methanandamide binding (agonist alone, no modulator) was “did not bind” and the methanandamide binding (with 1 μM PSNCBAM-1) was “binding was restored”.
